Assays:
PBP6b = molecular target: T1, PBP6b (Acinetobacter baumannii, UniProt A0ABX6CI93); assay: bocillin-binding assay with SDS-PAGE; settings: covalent; labelled compound; used to confirm identity of the purified protein
T1 construct: gene dacD; Triton X-100 extraction, Ni-NTA
T1 sequence (A0ABX6CI93 22-439): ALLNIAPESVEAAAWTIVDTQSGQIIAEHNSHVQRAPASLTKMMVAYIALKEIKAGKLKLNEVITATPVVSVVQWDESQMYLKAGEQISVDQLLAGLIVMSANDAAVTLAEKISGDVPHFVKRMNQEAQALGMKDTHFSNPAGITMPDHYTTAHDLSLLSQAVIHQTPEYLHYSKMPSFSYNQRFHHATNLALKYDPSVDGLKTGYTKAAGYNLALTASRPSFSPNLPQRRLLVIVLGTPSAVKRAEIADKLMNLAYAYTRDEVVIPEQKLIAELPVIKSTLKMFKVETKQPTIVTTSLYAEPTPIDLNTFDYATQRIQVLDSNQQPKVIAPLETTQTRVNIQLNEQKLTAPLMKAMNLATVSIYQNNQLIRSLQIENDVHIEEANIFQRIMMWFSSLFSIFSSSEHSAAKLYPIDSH

PBP5/6a = molecular target: T2, PBP5/6a (Acinetobacter baumannii, UniProt G1C735); assay: bocillin-binding assay with SDS-PAGE; settings: covalent; labelled compound; used to confirm identity of the purified protein
T2 construct: gene dacC; Triton X-100 extraction, Ni-NTA
T2 sequence (G1C735 20-382): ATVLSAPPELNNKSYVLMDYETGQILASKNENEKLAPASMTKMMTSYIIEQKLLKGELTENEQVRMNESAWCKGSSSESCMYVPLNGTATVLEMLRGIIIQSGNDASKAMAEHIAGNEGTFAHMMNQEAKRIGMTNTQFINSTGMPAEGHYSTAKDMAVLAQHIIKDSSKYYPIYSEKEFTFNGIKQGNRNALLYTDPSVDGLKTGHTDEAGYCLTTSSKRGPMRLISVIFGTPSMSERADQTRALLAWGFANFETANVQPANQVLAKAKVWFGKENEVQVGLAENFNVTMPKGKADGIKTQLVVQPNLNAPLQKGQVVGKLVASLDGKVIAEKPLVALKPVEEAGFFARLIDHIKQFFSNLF

Cc1cc(C)n2c1C=C1C=CC(CCC(=O)Nc3ccc(OCC(=O)N[C@@H]4C(=O)N5[C@@H]4SC(C)(C)[C@@H]5C(=O)O)cc3)=[N+]1[B-]2(F)F [bocillin]
bocillin-binding assay with SDS-PAGE (PBP6b): Protein purity and identity were confirmed by SDS-PAGE and bocillin-binding assays | bocillin-binding assay with SDS-PAGE (PBP5/6a): Protein purity and identity were confirmed by SDS-PAGE and bocillin-binding assays

Source: article PMC13059705, “Peptidoglycan DD-peptidases have distinct activities that impact fitness of Acinetobacter baumannii” (mBio, 2026)
